Ends that are not written are not given here.
Assays:
[1] = test system: tenascin-C mRNA expression in cultured rat cardiac endothelial cells; test: PCR analysis of tenascin-C mRNA expression in cultured cardiac endothelial cells treated with PDGF; format: cell-based; details: data not shown
Protocol: Tenascin-C expression was induced by PDGF during in vitro studies in rat aortic smooth muscle cells. […] Control cells received no PDGF. Cardiac endothelial cells from young (4-month old) and old (24-month old) rat hearts were tested. The number of treated and non-treated cultures tested was two (n=2 per group). Tenascin-C expression was higher in PDGF-treated cells and in younger (4 month old) as opposed to older ([…]) cultures of rat cardiac endothelial cells.

[2] = test system: tenascin-C expression in the heart; test: Immunohistochemical analysis of heart sections after intramyocardial PDGF injection; format: in vivo, rat; details: rats, 24 h, immunohistochemistry, data not shown
Protocol: Cardiac injections of PDGF ligand were performed as described in Xaymardan et al., Senescent impairment in synergistic cytokine pathways that provide rapid cardioprotection in the rat heart. J Exp Med, 199(6): p. 797-804 (2004). Briefly, rats were anesthetized, an intercostal thoracotomy was performed and then the rats received intramyocardial injections of PDGF-AB (100 ng/50 μl PBS) at the anterior wall of the myocardium (two 25 μl injections, 2 mm apart) through a 28 gauge needle. The chest wall was closed, the lungs inflated and the rats were extubated. Twenty-four hours later, the rats were sacrificed and the hearts were harvested for paraffin embedding and sectioning, using standard techniques.
(§1) The following primary antibodies were used for immunostaining histological sections: anti-tenascin-C (Santa Cruz Biotechnology, California), anti-pIII (Mobitec, Germany), anti-β-galactosidase (Biogenesis, U.K.), anti-PDGFRα (Santa Cruz Biotechnology). For consistency, sections for all analyses were selected from the mid-papillary region of the ventricles. Primary antibodies were labeled with biotin and visualized with Texas Red- and FITC-conjugated avidin (Vector Labs, California).

[3] = test system: rat cardiac microvascular endothelial cells; test: In vitro cell adhesion and spreading analysis on coated substrates; format: cell-based; details: for cells that failed to attach to the substrate: within 10 min of plating
Protocol: (§2) Rat cardiac microvascular endothelial cells were isolated from 3-month-old rats according to the method of Nishida et al. (1995). Cells were cultured on either collagen-coated or tenascin-C-coated (10 μg/ml) 8-well chamber slides (Nunc Nalge International, Illinois.) in minimal media (5% fetal bovine serum, 1% penicillin, 1% streptomycin in Dulbecco's modified Eagle's medium) for up to 48 hours and photographed daily. […] For migration analysis, cells were covered with 300 μl of collagen gel (Chemicon, California) after 3 h of culture on 10 μg/ml collagen or tenascin-C. The gel was allowed to polymerize for 1 hour at 37° C. and 200 μl of minimal media containing VEGF or PDGF (5 ng/ml) or no growth factor was added to the wells. Cells were incubated for up to 48 h, and analyzed for peak migration rates using an inverted microscope (Nikon, Japan): migratory distance of the 5 cells that had migrated furthest through the Z-axis of the gel was determined using the Z-plane focus knob of the microscope. Each experiment was repeated 4 times.
The role of tenascin-C in the regulation of cardiac angiogenesis, endothelial cell phenotype and behavior was further analyzed by observing whether tenascin-C influenced cell adhesion. Cardiac endothelial cells were isolated from young hearts and cultured on either tenascin-C or collagen at a concentration of 10 μg/ml. […] Thus, it appeared that tenascin-C has a short-term anti-adhesive effect on cardiac endothelial cells. […] After 3 h of culture, 99% of cells were attached to the collagen substrate, while approximately 10% of cells on tenascin-C still fail to adhere in this time. Thus, tenascin-C can mediate endothelial cell attachment but, at least within the first few hours of endothelial cell binding to tenascin-C, this attachment is weak and cells maintain a rounded phenotype.
The time period and substrate concentration effects upon cell attachment were further examined by plating rat microvascular endothelial cells on various concentrations (1 μg/ml, 10 μg/ml and 100 μg/ml) of collagen and tenascin-C and observing the attachment of cells to these substrates. As shown in FIGS. 6A-C, within 3 hr, cells on collagen were well attached and beginning to spread into a monolayer. In contrast, cells plated on tenascin-C for 3 hr remained rounded, especially when higher concentrations of tenascin-C were used (FIGS. 6D-F).

[4] = test system: rat cardiac microvascular endothelial cells; test: Three-dimensional migration assay through collagen gel; format: cell-based; details: cells cultured 3 h on substrate 10 μg/ml, 48 hours; for increase of peak migration distance in response to PDGF compared to absence of growth factors: PDGF 5 ng/ml; for increase of peak migration distance in response to VEGF compared to absence of growth factors: VEGF 5 ng/ml
Protocol: as §2
A three-dimensional assay system was developed in which cardiac endothelial cells were cultured on either collagen or tenascin-C for 3 h, and then migration through a collagen gel was analyzed in response to PDGF, VEGF, or the absence of angiogenic growth factors (FIGS. 8A, B). After 48 hours, peak migration distances through the Z-axis of the gel were determined (FIG. 8C).

[5] = test system: cardiac vasculature of young (3-month-old) and old (18-month-old) murine hearts; test: In vivo phage binding in heart after tail vein injection, quantified by phage titering; details: individual tail vein injection; 3-month-old vs 18-month-old mice; titers of phage eluted from hearts
Protocol: To identify young-specific bone marrow-homing phage, a phage library encoding a cyclically constrained seven amino acid variable region (New England Biolabs, Massachusetts) was injected into young (3 month) and old (18-month) adult mice, using methods described in Cai, D., et al., Age-associated impairment in TNF-alpha cardioprotection from myocardial infarction. Am J Physiol Heart Circ Physiol, 2003. 285(2): p. H463-69. Phage clones were selected for sequencing from phage pools eluted from young rather than old bone marrow. To confirm that these clones preferentially bound to young bone marrow, the clones were injected individually into young and old mice and young bone marrow-specific clones were re-selected from the young mouse's bone marrow. Young bone marrow-homing phage were then analyzed for cardiac binding to identify phage epitopes that preferentially bound to young cardiac vasculature as well as young bone marrow. The number of bound phage recovered per mg of tissue was quantified by serial dilution titration. The age-associated differential cardiac binding capacity of a candidate phage clone, ψR3Y32 was confirmed using methods described in Cai et al. (2004).
Individual injection of ψR3Y32 confirmed 10-fold higher levels of ψR3Y32 binding in young compared to old murine hearts (FIG. 3A).

[6] = target: T1, tenascin-C in the cardiac vasculature (Mus musculus, UniProt Q80YX1); test: Immunostaining of heart sections for phage coat protein pIII and tenascin-C; format: in vivo; details: rodent heart after phage injection
T1 construct: from tissue; host or cells: heart (cardiac vasculature) of phage-injected animals, paraffin sections
Source text: For immunohistochemical analysis of phage binding, hearts were harvested after phage injection, and then prepared for paraffin embedding and sectioning using standard histochemical procedures.
as §1
To investigate whether tenascin is an in vivo receptor for ψR3Y32, expression of tenascin-C as well as its relationship to phage binding sites was analyzed in the rodent heart. […] Co-staining for tenascin-C and the nuclear marker 4,6-diamidino-2-phenylindole (DAPI) further confirmed that tenascin-C is expressed on the luminal surface of cardiac vessels, and therefore may act at sites of endothelial cell/EPC cell incorporation during vascular remodeling (FIG. 3D).

[7] = 3 hours of incubation, substrate 10 μg/ml
[8] = after 3 h of culture, substrate 10 μg/ml

T1 sequence (Q80YX1 23-2110): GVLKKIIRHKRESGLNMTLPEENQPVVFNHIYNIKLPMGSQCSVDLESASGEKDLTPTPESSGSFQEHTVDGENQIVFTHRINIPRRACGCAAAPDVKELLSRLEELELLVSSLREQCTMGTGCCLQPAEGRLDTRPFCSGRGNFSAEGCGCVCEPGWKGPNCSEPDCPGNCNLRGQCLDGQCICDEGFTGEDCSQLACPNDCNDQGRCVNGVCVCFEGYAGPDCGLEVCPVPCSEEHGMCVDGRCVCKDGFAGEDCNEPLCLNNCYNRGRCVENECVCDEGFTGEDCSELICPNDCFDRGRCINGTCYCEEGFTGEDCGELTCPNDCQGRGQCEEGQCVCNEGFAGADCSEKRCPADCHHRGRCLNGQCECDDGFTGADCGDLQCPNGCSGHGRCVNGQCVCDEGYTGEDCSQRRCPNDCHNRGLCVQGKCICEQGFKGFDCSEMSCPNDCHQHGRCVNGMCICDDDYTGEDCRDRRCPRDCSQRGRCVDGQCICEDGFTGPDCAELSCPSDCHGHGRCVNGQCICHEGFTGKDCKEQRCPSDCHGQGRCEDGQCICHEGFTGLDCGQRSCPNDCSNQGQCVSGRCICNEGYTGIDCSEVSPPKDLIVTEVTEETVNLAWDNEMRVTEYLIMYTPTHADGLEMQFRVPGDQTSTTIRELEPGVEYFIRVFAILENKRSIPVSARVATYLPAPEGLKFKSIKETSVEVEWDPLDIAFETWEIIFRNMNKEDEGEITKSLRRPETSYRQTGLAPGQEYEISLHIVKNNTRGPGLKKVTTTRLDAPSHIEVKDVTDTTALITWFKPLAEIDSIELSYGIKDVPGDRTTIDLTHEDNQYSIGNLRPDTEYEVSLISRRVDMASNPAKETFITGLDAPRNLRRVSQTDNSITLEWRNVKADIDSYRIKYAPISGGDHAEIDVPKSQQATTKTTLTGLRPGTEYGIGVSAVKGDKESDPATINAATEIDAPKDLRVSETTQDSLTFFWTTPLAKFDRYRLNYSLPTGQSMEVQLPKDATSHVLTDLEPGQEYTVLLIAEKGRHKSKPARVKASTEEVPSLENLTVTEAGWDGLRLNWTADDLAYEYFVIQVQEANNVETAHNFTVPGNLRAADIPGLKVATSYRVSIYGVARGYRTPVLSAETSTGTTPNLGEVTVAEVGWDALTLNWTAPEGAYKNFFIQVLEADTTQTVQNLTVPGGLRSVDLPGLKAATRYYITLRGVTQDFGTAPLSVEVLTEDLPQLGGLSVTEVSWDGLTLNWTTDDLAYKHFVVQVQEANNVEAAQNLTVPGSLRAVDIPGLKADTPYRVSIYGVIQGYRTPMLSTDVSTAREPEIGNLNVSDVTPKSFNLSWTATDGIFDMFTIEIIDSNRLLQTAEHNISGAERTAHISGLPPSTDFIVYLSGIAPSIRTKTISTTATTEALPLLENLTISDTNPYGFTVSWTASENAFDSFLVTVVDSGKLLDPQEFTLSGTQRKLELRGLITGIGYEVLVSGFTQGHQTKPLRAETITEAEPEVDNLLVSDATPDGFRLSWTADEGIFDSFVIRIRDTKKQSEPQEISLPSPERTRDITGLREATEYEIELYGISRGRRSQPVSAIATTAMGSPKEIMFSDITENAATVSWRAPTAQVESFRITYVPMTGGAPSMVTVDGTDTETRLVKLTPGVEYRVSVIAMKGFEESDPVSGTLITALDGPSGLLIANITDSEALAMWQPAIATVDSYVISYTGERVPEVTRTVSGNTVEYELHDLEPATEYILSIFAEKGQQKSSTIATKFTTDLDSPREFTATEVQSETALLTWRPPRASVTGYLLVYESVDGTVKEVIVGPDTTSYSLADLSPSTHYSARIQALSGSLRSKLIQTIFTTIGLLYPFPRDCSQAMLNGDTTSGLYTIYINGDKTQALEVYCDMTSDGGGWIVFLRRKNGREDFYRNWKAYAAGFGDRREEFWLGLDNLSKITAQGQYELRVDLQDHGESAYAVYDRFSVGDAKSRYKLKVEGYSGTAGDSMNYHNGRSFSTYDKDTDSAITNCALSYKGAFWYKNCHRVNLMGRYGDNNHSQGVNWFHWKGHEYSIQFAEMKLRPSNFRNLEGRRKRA

PDGF-AB: platelet derived growth factor AB heterodimer ligand
time of peak upregulation of tenascin-C mRNA ([1]; RT-PCR, cardiac endothelial cells cultured with exogenous PDGF ligand): 6 h | tenascin-C mRNA expression in cardiac endothelial cells after treatment ([1]; real-time PCR, cultured rat cardiac endothelial cells, n=2 per group): increased | tenascin-C expression in heart sections after treatment [2]: increases tenascin-C expression

collagen [reference compound]
cell attachment and morphology [3, 7]: attached well and were beginning to spread | cells attached to the substrate [3, 8]: 99% | cells that failed to attach to the substrate ([3]; substrate 10 μg/ml): 16.9% | increase of peak migration distance in response to PDGF compared to absence of growth factors [4]: 51.4% | increase of peak migration distance in response to VEGF compared to absence of growth factors [4]: 63.3%

tenascin-C: hexameric extracellular matrix glycoprotein, used as coating substrate for cardiac endothelial cells
cell attachment and morphology [3, 7]: rounded and poorly attached | cell attachment and morphology ([3]; 24 hours of culture, substrate 10 μg/ml): well attached and spread and formed a typical endothelial monolayer | cell attachment and morphology ([3]; 24 hr, substrate 100 μg/ml): formed multi-layered cell clusters | cells that fail to adhere [3, 8]: approximately 10% | cells that failed to attach to the substrate ([3]; substrate 10 μg/ml): 86.9% | increase of peak migration distance in response to PDGF compared to absence of growth factors [4]: 64.3% | increase of peak migration distance in response to VEGF compared to absence of growth factors [4]: 91.6%

ψR3Y32: phage clone from in vivo biopanning displaying a cyclically constrained peptide with core motif STISHN (SEQ ID NO:1), homologous to alpha-8 integrin (also: displayed on phage, cyclically constrained; listed as Homo sapiens)
levels of phage binding in young compared to old murine hearts [5]: 10 fold | binding of phage to vessels within the heart (pIII immunostaining) [6]: confirmed the binding of ψR3Y32 to vessels within the heart

Source: patent US20060172943A1, “Restoring vascular function” (priority 2003, published 2006)
